Experimental data published in US10137185B2, “PAP peptide analogues” (THE NOTTINGHAM TRENT UNIVERSITY, priority 2014, dated 2018).
Where “and” joins values, the source holds several entries; their conditions need not be identical. Equal entries are not always repeated.

Experiments:
[1] = test system: PBMCs isolated from patients with prostate cancer; test: IFNγ ELISPOT of pre- and post-vaccination PBMCs, Norway clinical trial (mRNA-transfected DC vaccine); format: cell-based, human; settings: for post-vaccination samples with significantly higher peptide-specific IFNγ response than pre-vaccination: of 8 responder samples, 48 hours
From the text: FIG. 4. The flow chart of Norway clinical trial. Monocytes were isolated from patients with prostate cancer and cultured in vitro. mRNA isolated from the prostate cancer cell lines DU145, LNCAP and PC3 were transfected into immature dendritic cells (DCs). The DCs were then allowed to mature and were re-infused back into the patient. PBMCs isolated a week before (pre-vaccination) and 12 weeks after immunisations (post-vaccination) were used in this study. The patients were categorised as responders and non-responders based on the PSA levels and also metastatic state of the disease based on bone scans post immunisation.
FIG. 5. IFNγ response of PBMCs isolated from patients with prostate cancer who had responded to the therapy and were categorised as being ‘responders’ on the basis of the criteria detailed above (Norway Clinical Trial) after re-stimulation with PAP-115-123 epitope peptide (10 μg), as determined using the ELISPOT assay. PBMCs isolated pre-vaccination (black bars) and post vaccination (red bars) are compared. Patient samples are represented as p10, p12, p15 etc. The cryopreserved PBMCs were washed and rested overnight, at which time 4×10^4 cells were added to each well of an ELISPOT plate. PAP-115-123 epitope peptide (10 μg) was added to each well and the cells cultured for 48 hours. The plates were then washed according to the manufacturer's protocol. PBMCs cultured with an HIV-derived peptide or no added peptide were used as controls. Comparisons of means (±SEM) between groups (pre-vaccination or post-vaccination PBMCs) are made using an unpaired t test.
FIG. 6. IFNγ response of PBMCs isolated from patients with prostate cancer who had responded to the therapy and were categorised as being ‘responders’ on the basis of the criteria detailed above after re-stimulation with PAP-115-123 epitope peptide (1 μg), as determined using the ELISPOT assay. PBMCs isolated pre-vaccination (black bars) and post-vaccination (red bars) are compared here. Patient samples are represented as p10, p12, p15 etc. The cryopreserved PBMCs were washed and rested overnight, at which time 4×10^4 cells were added to each well of an ELISPOT plate. PAP-115-123 epitope peptide (1 μg) was added to each well and the cells cultured for 48 hours. The plates were then washed according to manufacturer's protocol. PBMCs cultured with HIV-derived peptide or no added peptide were used as controls. Comparisons of means (±SEM) between groups (pre-vaccination or post-vaccination PBMCs) are made using an unpaired t test.
FIG. 7. Fold change in the IFNγ response generated by PBMCs isolated from patients with prostate cancer from the Norway Clinical Trial after restimulation with PAP-115-123 epitope peptide (10 μg), as determined using the ELISPOT assay. Patients that were reported to have responded to the treatment (p10, p12, p15, p19, p101, p102, p107, p108) are indicated by red bars. […] The cryopreserved PBMCs were washed and rested overnight, at which time 4×10^4 cells were added to each well of an ELISPOT plate. PAP-115-123 epitope peptide (10 μg) was added to each well and the plates cultured for 48 hours. The plates were then washed according to the manufacturer's protocol. PBMCs cultured with HIV-derived peptide or no added peptide were used as control.
The presence of circulating PAP-115-123 specific T cells in PBMCs isolated from patients with prostate cancer following treatment with DCs that had been transfected with mRNA isolated from the prostate cancer cell lines (DU145, LNCaP and PC3) as part of a Norwegian Clinical Trial which was performed by Professor Gustav Gaudernack was determined on the basis of their responsiveness to PAP-derived peptides. In the trial, DCs were isolated from patients with prostate cancer and cultured DCs were transfected with mRNA isolated from the prostate cancer cell lines (DU145, LNCaP and PC3). The matured DCs were re-infused back into the patients (FIG. 4). […]

[2] = test system: PBMCs isolated from patients with prostate cancer; test: IFNγ ELISA of supernatants of PBMCs, Norway clinical trial; format: cell-based, human
Protocol: FIG. 8. Fold change in the IFNγ response generated by PBMCs isolated from patients with prostate cancer from the Norway Clinical Trial after re-stimulation with of PAP-115-123 epitope peptide (10 μg), as assessed using an ELISA. Patients that were reported to have responded to the treatment (p10, p12, p15, p19, p101, p102, p107, p108) are indicated by red bars. […] The cryopreserved PBMCs were washed and rested overnight, at which time 4×10^4 cells were added to each well of a 96 well plate. PAP-115-123 epitope peptide (10 μg) was added to each well and the plates cultured for 48 hours. Supernatants were harvested and analysed for IFNγ secretion.
Cryopreserved PBMCs were thawed, washed and rested overnight, at which time 4×10^4 cells were added to each well of an ELISPOT plate. PAP-115-123 epitope peptide (10 μg) was to each well and cells were cultured for 48 hours. The plates were developed according to the manufacturer's protocol. PBMCs cultured with HIV-derived peptide or no peptide were used as controls. A 2-4 fold higher PAP-115-123 specific IFNγ response was observed using PBMCs from 8 of the responder patients and 2-12 fold decreases in the IFNγ response was observed using PBMCs from 4 of the non-responder patients (FIG. 7). IFNγ secretion in these samples was confirmed by analysing harvested supernatants using an R&D Systems ELISA (FIG. 8). […]

Sequence: SAMTNLAAL [PAP-115-123]
- number of spots, pre-vaccination samples ([1]; 1 μg peptide): 10-30 spots
- number of spots, post-vaccination samples ([1]; 1 μg peptide, patients p12, p19, p101, p102, p107, p108): 60-140 spots
- number of spots, pre-vaccination samples ([1]; 10 μg peptide): 10-30 spots
- number of spots, post-vaccination samples ([1]; 10 μg peptide, patients p12, p15, p19, p102, p107, p108): 60-160 spots
- fold decrease in IFNγ response post vs pre vaccination, non-responders ([1]; 4 non-responder patients, 10 μg peptide, ELISPOT): 2-12 fold and 2-10 fold
- fold higher peptide-specific IFNγ response post vs pre vaccination, responders ([1]; 8 responder patients, 10 μg peptide, ELISPOT): 2-4 fold
- post-vaccination samples with significantly higher peptide-specific IFNγ response than pre-vaccination ([1]; 1 μg peptide): 6
- post-vaccination samples with significantly higher peptide-specific IFNγ response than pre-vaccination ([1]; 10 μg peptide): 6
- fold lower IFNγ levels post vs pre vaccination, non-responders ([2]; 10 μg peptide): 2-2.5 fold
- fold higher IFNγ levels post vs pre vaccination, responders ([2]; all responders except p19, 10 μg peptide): 1-1.5 fold
